Assay results published in paper PMC12606464, “Investigating NFE2L1 activators for targeted protein aggregate clearance: a follow-up study” (RSC Medicinal Chemistry, 2025).

System: proteasome subunit gene expression (PSMC4, PSMB7, PSMD12)
Test: RT-qPCR of proteasome genes in NFE2L1/NFE2L2-knockdown HEK293 cells
Type: cell-based, human
Details: for NFE2L1 mRNA, mean diff between siRNA treatments, log2 / NFE2L2 mRNA, mean diff between siRNA treatments, log2 / PSMB7 mRNA, mean diff between siRNA treatments, log2 / PSMD12 mRNA, mean diff between siRNA treatments, log2: RUN89-treated
Description: Fig. 1 (A) Targeted library screening of RUN compounds using the 3×PSMA4-ARE-LUC dual reporter assay in HEK293 cells. Cells were exposed to RUN compounds (5 μM) for 16 hours, and luciferase activity was measured. Data are presented as the mean ± SD from three independent experiments (n = 3). Results are shown as a fold change in luminescence relative to DMSO-treated cells. Selected hit compounds are highlighted in distinct colours. (B) RUN-89 specifically activates the NFE2L1 pathway. The DDI2 knockout (KO) and parental (WT) HCT116 cells were transfected with the 3×PSMA4-ARE-LUC reporter and treated with 0.5 μM bortezomib (BTZ) and 5 μM RUN-89 for 16 hours. Data are presented as the Geomean ± GeoSD of three independent experiments (n = 3). Statistical analysis was performed on log2-transformed values using two-way repeated-measures ANOVA followed by Šídak's multiple comparison test. (C) RUN-89 selectively triggers downstream signaling events associated with NFE2L1 gene expression. HEK293 cells were transfected with lipid nanoparticles (LNPs) carrying siRNAs targeting NFE2L1 or NFE2L2. LNPs formulated with non-targeting siRNA served as a negative control. Following 24 hours of incubation, cells were treated with 7.5 μM RUN-89 or DMSO (vehicle) for an additional 16 hours. Expression of the proteasomal subunit gene PSMC4 was then quantified by RT-qPCR. Data are shown as the Geomean ± GeoSD from three independent biological replicates (n = 3). Log2-transformed data were analyzed using two-way repeated-measures ANOVA with the Geisser–Greenhouse correction, followed by Tukey's multiple comparison test with individual variances computed for each comparison. Additional results for NFE2L1, NFE2L2, PSMB7, and PSMD12 are presented in SI Fig. S10.
To further confirm that RUN-89 acts through NFE2L1-dependent signalling, we investigated the effect of selective knockdown of NFE2L1 and NFE2L2 on the induction of proteasomal genes. HEK293 cells (from ATCC CCL-247 (RRID:CVCL_0291)) were transfected with lipid nanoparticles (LNPs) carrying siRNAs targeting either NFE2L1 or NFE2L2, while non-targeting siRNA was used as a control. After treatment with RUN-89, transcript levels of several proteasome subunit genes were analyzed by RT-qPCR.
Figure S10: Effects of RUN-89 on NFE2L1- and NFE2L2-associated target genes following […]
HEK293 cells were transfected with lipid nanoparticles (LNPs) containing siRNAs against NFE2L1, NFE2L2, or a non-targeting control siRNA. After 24 hours, cells were treated with 7.5 μM RUN-89 or DMSO (vehicle) for an additional 16 h, and transcript levels of NFE2L1, NFE2L2, PSMB4, PSMB7, and PSMD12 were quantified by RT -qPCR. Data are presented as mean ± SD from three independent biological replicates (n = 3). Log₂ -transformed data were analyzed by two -way repeated-measures ANOVA with Geisser –Greenhouse correction, followed by Tukey’s multiple compa rison test with individual variances computed for each comparison.
2.16 Analysis of proteasome genes expression in NFE2L1/NFE2L2-
The corresponding HEK293 cells were seeded into 24-well culture plates (120,000 cells/well) and allowed to adhere overnight under standard culture conditions. On the following day, cells were transfected with siRNAs targeting NFE2L1, NFE2L2, or a non-targeting negative control siRNA (Table S2). Transfections were performed using a lipid nanoparticle (LNP) delivery system assembled as previously described,(7) with a final siRNA concentration of ~0.2 nmol per well. After 24 h of incubation, cells were treated with 7.5 µM […] or DMSO (vehicle control) for 16 h. Total RNA was then extracted, converted into cDNA, and analyzed by RT-qPCR using primers targeting proteasome genes (listed in Section 2.5, Quantitative RT-PCR, Table S1). Expression levels were normalized to RPLP0 mRNA. The […]

[1] = NFE2L1 siRNA vs. NFE2L1 + L2 siRNA
[2] = NFE2L2 siRNA vs. NFE2L1 + L2 siRNA
[3] = Non transfected vs. NFE2L1 + L2 siRNA
[4] = Non transfected vs. NFE2L1 siRNA
[5] = Non transfected vs. NFE2L2 siRNA
[6] = Non transfected vs. Scramble control siRNA
[7] = Scramble control siRNA vs. NFE2L1 + L2 siRNA
[8] = Scramble control siRNA vs. NFE2L1 siRNA
[9] = Scramble control siRNA vs. NFE2L2 siRNA

COc1ccc(/C=C2\CC(NC(=O)C3CCCC3)C/C(=C\c3ccc(OC)c(OC)c3)C2=O)cc1OC (centres unmarked) [RUN-89]
PSMC4 expression, mean log2, NFE2L1 + L2 siRNA (7.5 μM, 16 h, HEK293): 0.5367 | PSMC4 expression, mean log2, NFE2L1 siRNA (7.5 μM, 16 h, HEK293): 0.5329 | PSMC4 expression, mean log2, NFE2L2 siRNA (7.5 μM, 16 h, HEK293): 1.12 | PSMC4 expression, mean log2, scramble control siRNA (7.5 μM, 16 h, HEK293): 1.335 | PSMC4 expression, row mean of log2 values over all siRNA treatments (7.5 μM, 16 h, HEK293): 0.9981 | PSMC4 expression, mean log2, non transfected (7.5 μM, 16 h, HEK293, no siRNA): 1.466 | Induction of PSMC4 expression upon silencing of NFE2L1, but not NFE2L2 (HEK293, siRNA LNPs): markedly reduced | Mean diff, of log2-transformed values, DMSO vs. RUN89 (NFE2L1 + L2 siRNA): 0.1671 | NFE2L1 mRNA, mean diff DMSO vs. RUN89, log2 (NFE2L1 + L2 siRNA): 0.4839 | NFE2L1 mRNA, mean of log2-transformed values (NFE2L1 + L2 siRNA): -1.849 | NFE2L2 mRNA, mean diff DMSO vs. RUN89, log2 (NFE2L1 + L2 siRNA): 0.1671 | PSMB7 mRNA, mean diff DMSO vs. RUN89, log2 (NFE2L1 + L2 siRNA): -0.04295 | PSMB7 mRNA, mean of log2-transformed values (NFE2L1 + L2 siRNA): -0.005215 | PSMD12 mRNA, mean diff DMSO vs. RUN89, log2 (NFE2L1 + L2 siRNA): -1.247 | PSMD12 mRNA, mean of log2-transformed values (NFE2L1 + L2 siRNA): 1.4 | Mean diff, of log2-transformed values, DMSO vs. RUN89 (NFE2L1 siRNA): 0.3261 | NFE2L1 mRNA, mean diff DMSO vs. RUN89, log2 (NFE2L1 siRNA): 0.5812 | NFE2L1 mRNA, mean of log2-transformed values (NFE2L1 siRNA): -2.192 | NFE2L2 mRNA, mean diff DMSO vs. RUN89, log2 (NFE2L1 siRNA): 0.3261 | PSMB7 mRNA, mean diff DMSO vs. RUN89, log2 (NFE2L1 siRNA): 0.02314 | PSMB7 mRNA, mean of log2-transformed values (NFE2L1 siRNA): -0.07162 | PSMD12 mRNA, mean diff DMSO vs. RUN89, log2 (NFE2L1 siRNA): -1.239 | PSMD12 mRNA, mean of log2-transformed values (NFE2L1 siRNA): 1.413 | Mean diff, of log2-transformed values, DMSO vs. RUN89 (NFE2L2 siRNA): 0.07457 | NFE2L1 mRNA, mean diff DMSO vs. RUN89, log2 (NFE2L2 siRNA): -0.06055 | NFE2L1 mRNA, mean of log2-transformed values (NFE2L2 siRNA): -0.3257 | NFE2L2 mRNA, mean diff DMSO vs. RUN89, log2 (NFE2L2 siRNA): 0.07457 | PSMB7 mRNA, mean diff DMSO vs. RUN89, log2 (NFE2L2 siRNA): -0.4898 | PSMB7 mRNA, mean of log2-transformed values (NFE2L2 siRNA): 0.4898 | PSMD12 mRNA, mean diff DMSO vs. RUN89, log2 (NFE2L2 siRNA): -1.678 | PSMD12 mRNA, mean of log2-transformed values (NFE2L2 siRNA): 1.979 | Mean diff, of log2-transformed values, DMSO vs. RUN89 (Non transfected): -0.3265 | NFE2L2 mRNA, mean diff DMSO vs. RUN89, log2 (Non transfected): -0.3265 | PSMB7 mRNA, mean diff DMSO vs. RUN89, log2 (Non transfected): -0.7476 | PSMB7 mRNA, mean of log2-transformed values (Non transfected): 0.7599 | PSMD12 mRNA, mean diff DMSO vs. RUN89, log2 (Non transfected): -1.909 | PSMD12 mRNA, mean of log2-transformed values (Non transfected): 2.076 | NFE2L1 mRNA, mean diff between siRNA treatments, log2 [1]: 0.3437 | NFE2L2 mRNA, mean diff between siRNA treatments, log2 [1]: 2.749 | PSMB7 mRNA, mean diff between siRNA treatments, log2 [1]: -0.0664 | PSMD12 mRNA, mean diff between siRNA treatments, log2 [1]: 0.01218 | NFE2L1 mRNA, mean diff between siRNA treatments, log2 (NFE2L1 siRNA vs. NFE2L2 siRNA): 1.867 | NFE2L2 mRNA, mean diff between siRNA treatments, log2 (NFE2L1 siRNA vs. NFE2L2 siRNA): 2.85 | PSMB7 mRNA, mean diff between siRNA treatments, log2 (NFE2L1 siRNA vs. NFE2L2 siRNA): -0.5614 | PSMD12 mRNA, mean diff between siRNA treatments, log2 (NFE2L1 siRNA vs. NFE2L2 siRNA): -0.5664 | NFE2L1 mRNA, mean diff between siRNA treatments, log2 [2]: -1.523 | NFE2L2 mRNA, mean diff between siRNA treatments, log2 [2]: -0.1013 | PSMB7 mRNA, mean diff between siRNA treatments, log2 [2]: 0.495 | PSMD12 mRNA, mean diff between siRNA treatments, log2 [2]: 0.5786 | NFE2L1 mRNA, mean diff between siRNA treatments, log2 [3]: -2.639 | NFE2L2 mRNA, mean diff between siRNA treatments, log2 [3]: 3.437 | PSMB7 mRNA, mean diff between siRNA treatments, log2 [3]: 0.7651 | PSMD12 mRNA, mean diff between siRNA treatments, log2 [3]: 0.6755 | NFE2L1 mRNA, mean diff between siRNA treatments, log2 [4]: -2.982 | NFE2L2 mRNA, mean diff between siRNA treatments, log2 [4]: 0.6883 | PSMB7 mRNA, mean diff between siRNA treatments, log2 [4]: 0.8315 | PSMD12 mRNA, mean diff between siRNA treatments, log2 [4]: 0.6633 | NFE2L1 mRNA, mean diff between siRNA treatments, log2 [5]: -1.115 | NFE2L2 mRNA, mean diff between siRNA treatments, log2 [5]: 3.539 | PSMB7 mRNA, mean diff between siRNA treatments, log2 [5]: 0.27 | PSMD12 mRNA, mean diff between siRNA treatments, log2 [5]: 0.09696 | NFE2L2 mRNA, mean diff between siRNA treatments, log2 [6]: -0.01225 | PSMB7 mRNA, mean diff between siRNA treatments, log2 [6]: 0.1431 | PSMD12 mRNA, mean diff between siRNA treatments, log2 [6]: -0.01734 | NFE2L1 mRNA, mean diff between siRNA treatments, log2 [7]: -2.465 | NFE2L2 mRNA, mean diff between siRNA treatments, log2 [7]: 3.45 | PSMB7 mRNA, mean diff between siRNA treatments, log2 [7]: 0.622 | PSMD12 mRNA, mean diff between siRNA treatments, log2 [7]: 0.6929 | NFE2L1 mRNA, mean diff between siRNA treatments, log2 [8]: -2.808 | NFE2L2 mRNA, mean diff between siRNA treatments, log2 [8]: 0.7005 | PSMB7 mRNA, mean diff between siRNA treatments, log2 [8]: 0.6884 | PSMD12 mRNA, mean diff between siRNA treatments, log2 [8]: 0.6807 | NFE2L1 mRNA, mean diff between siRNA treatments, log2 [9]: -0.9417 | NFE2L2 mRNA, mean diff between siRNA treatments, log2 [9]: 3.551 | PSMB7 mRNA, mean diff between siRNA treatments, log2 [9]: 0.127 | PSMD12 mRNA, mean diff between siRNA treatments, log2 [9]: 0.1143 | Mean diff, of log2-transformed values, DMSO vs. RUN89 (Scramble control siRNA): -0.3474 | NFE2L1 mRNA, mean diff DMSO vs. RUN89, log2 (Scramble control siRNA): 0.6041 | NFE2L1 mRNA, mean of log2-transformed values (Scramble control siRNA): 0.616 | NFE2L2 mRNA, mean diff DMSO vs. RUN89, log2 (Scramble control siRNA): -0.3474 | PSMB7 mRNA, mean diff DMSO vs. RUN89, log2 (Scramble control siRNA): -0.6138 | PSMB7 mRNA, mean of log2-transformed values (Scramble control siRNA): 0.6168 | PSMD12 mRNA, mean diff DMSO vs. RUN89, log2 (Scramble control siRNA): -2.092 | PSMD12 mRNA, mean of log2-transformed values (Scramble control siRNA): 2.093 | NFE2L1 mRNA, mean of log2-transformed values (row mean) (mean over all siRNA treatments): -0.5922 | NFE2L2 mRNA, mean of log2-transformed values (row mean) (mean over all siRNA treatments): -1.194 | PSMB7 mRNA, mean of log2-transformed values (row mean) (mean over all siRNA treatments): 0.3579 | PSMD12 mRNA, mean of log2-transformed values (row mean) (mean over all siRNA treatments): 1.792 | NFE2L1 mRNA, difference between means (DMSO - RUN89), log2 (over all siRNA treatments): -0.4084 | NFE2L2 mRNA, difference between means (DMSO - RUN89), log2 (over all siRNA treatments): -0.02122 | PSMB7 mRNA, difference between means (DMSO - RUN89), log2 (over all siRNA treatments): -0.3742 | PSMD12 mRNA, difference between means (DMSO - RUN89), log2 (over all siRNA treatments): -1.633
